# Assay results as given in publication PMC4603696, “Discovery and characterization of novel small-molecule inhibitors targeting nicotinamide phosphoribosyltransferase” (Scientific Reports, 2015).
# “Also recorded” adds a separate entry of the source.
# Legend:
# NMNAT = target: T1, NMNAT (Mus musculus, UniProt Q9EPA7); assay: Isothermal titration calorimetry (ITC); assay type: binding; conditions: 554 μM MS0 into 25 μM protein, 25 °C
# T1 construct: His-tag; made in house; host or cells: E. coli BL21-CodonPlus (DE3)-RIL
# T1 sequence (Q9EPA7 whole entry): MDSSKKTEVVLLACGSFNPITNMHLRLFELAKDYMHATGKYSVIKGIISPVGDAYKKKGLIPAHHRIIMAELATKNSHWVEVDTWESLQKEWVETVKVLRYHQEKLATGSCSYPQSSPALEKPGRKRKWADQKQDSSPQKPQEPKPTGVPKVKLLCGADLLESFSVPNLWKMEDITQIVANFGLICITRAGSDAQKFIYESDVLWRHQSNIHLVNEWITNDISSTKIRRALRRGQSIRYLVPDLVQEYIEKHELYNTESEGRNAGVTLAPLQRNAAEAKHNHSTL
# Protocol: Thermodynamic parameters of small molecule binding to protein were determined using a MicroCal VP-ITC calorimeter. NMNAT protein solutions were ultrafiltrated in Amicon Ultra-0.5 Centrifugal Filter Unit (Merck Millipore) against buffer [20 mM Tris (pH 7.5), 20 mM NaCl], which was subsequently used to prepare a matched compound solution. […] Measurements were performed at 25 °C with spacing of 90 s between injections.
# Pr otei n e xp ressi on andpur ification
# Prot eins were expres se d and pur ified by our pr e vi ous methods2,3. […]
# The pur ity of the pr ot ein was more tha n 90% de term ine d by SDS-PAGE and Coo massi e Blue (Tiange n, C hi na) staining and f ur the r by w est ern bl ot a na lysi s (Fig. S1).
# High t hrou ghput sc reen ing (HTS)
# HTS was pe rfor med usi ng our previ ously repor ted method 3. 0.5 μl st oc k of each com poun d (1 mM DMSO st oc k) was transf erred to a 96-well PCR pl ate for sc ree ni ng. […] Fina lly, 85 μl mixt ur es in each well were transf erred int o a flat-bottom 96-well black plate (Greiner) , and the fluoresc enc e (F) was measured usi ng a Teca n Inf inity M200 pl ate reader (Tecan Group Lt d.) by se tting the exc itation and emissi on wave leng th to 382 nm and 445nm respe ctive ly. […]
# HepG2 cells = assay: Cell counting kit-8 (CCK-8) cell viability assay in HepG2; assay type: cell-based, human
# Protocol: Cellc ount ing k it-8 (CCK-8) assa y
# Cell vi ability was de termine d by ou r previ ous method9 usi ng the Cell Counting Kit-8 (CCK -8, Dojindo, Ja pa n). In hu man he pa tocellu lar carcinom a cell line HepG 2, cells were seede d in 96-well plate and starve d for ove r 12 h with se rum-free DMEM at 60~ 70% conf lue nc y, the n trea ted wit h com pounds or ve hicle for 24 h to 72 h accor ding to expe riment requi rement s. […]
# 10 μl CCK-8 sol ution was adde d to the cul ture medium and inc ub ated at 37 °C for 1 h. Th e absor banc e at 450 nm (A450) was de tected by a pl ate reade r. Each e xperi ment w as carr ied out i n t riplic ate i n thr ee r eplic ate w ells.
# A549 cells = assay: SRB assay in A549; assay type: cell-based, human
# Protocol: (§1) Sulfor hod am ine B p rotei n st ai ning (SRB) assay
# (§2) Cell pr oliferat ion was eva lua ted by sul for hod amine B pr ot ein st aini ng (SRB) assa y10-12.
# (§3) Briefly, cel ls were se ede d int o 96-well pl ates, cul tur ed overni ght , and trea ted with correspond ing com poun ds for 72 h. Cells were the n fixe d with 10% trichl or oa cetic aci d and st ained with sul for hoda mine B (Sigm a). Sul for hoda mine B in the cells was di sso lved in 10 mmol/L Tris-HCl and was measured at 515 nm usi ng a multiw ell spect ropho tometer (VERSA max, Mol ecul ar Devi ces, Sunnyva le, CA). The inhi bi tion rat e on cell pr olif eratio n was cal culated for each well as (A515contr ol cells-A 515tr eated cells)/A515contr ol cells×100 % (A515:
# (§4) OD va lue at 515 nm ). The averag e IC50 va lue s were de termine d by Logit method from at leas t t hr eei nde pe nde nt test s.
# [1] = test system: metastatic lung cancer cell line 95-D; assay: SRB assay in 95-D; assay type: cell-based, human; conditions: 72 hours
# Protocol: as §1, §2, §3, §4
# [2] = test system: osteosarcoma cell line U2OS; assay: SRB assay in U2OS; assay type: cell-based, human; conditions: 72 hours
# Protocol: as §1, §2, §3, §4
# NAMPT = conditions: read-out: biochemical potency IC50; reported independently by Zheng et al. ref 19, 22; cited from earlier work
compound,measurement,setting,value
O=S(=O)(c1ccc(NC(=S)NCc2cccnc2)cc1)N1CCCCC1 [MS0],interaction with NMNAT by ITC,NMNAT,did not detect an interaction; also recorded: does not show detectable interaction
same,"cell viability (CCK-8), time course","HepG2 cells; HepG2, 10 μM, treatment for ≥36 hours",markedly inhibited
same,cell viability (CCK-8),"HepG2 cells; HepG2, 24 hours, up to 10 μM",almost had no changes
same,IC50,"HepG2 cells; Homo sapiens, HepG2, 48 h, read-out: CCK-8 assay in HepG2: IC50",703 ± 95.4 nM
same,"growth inhibition (SRB, in words)","A549 cells; A549, 72 hours",potent growth inhibition
same,IC50,"A549 cells; Homo sapiens, A549, read-out: anti-proliferation IC50, initial screen",< 5000 nM
same,"growth inhibition (SRB, in words)",[1],potent growth inhibition
same,"growth inhibition (SRB, in words)",[2],potent growth inhibition
